The values below are quoted from earlier work in patent publication EP1131101B1, “KHELLIN PREPARATION AND THE USE THEREOF FOR TOPICAL THERAPY” (priority 1998, dated 2000).

For data set [1] the following is noted: animal experiments; UVA phototherapy with Khellin compared with photochemotherapy with 8-MOP.
In the next data set the test system is Plaque-Psoriasis. The conditions noted are these: oral 100 mg Khellin then sun exposure.

Molecules are shown by their SMILES.

Turning to `COc1c2occc2c(OC)c2c(=O)cc(C)oc12` [Khellin, 4,9-Dimethoxy-7-methyl-5H-furo[3,2-g][1] benzopyran-5-on], the “karzinogenes Risiko” value in data set [1] is on record as “deutlich geringeres karzinogenes Risiko”. In addition, the “auf die Behandlung ansprachen” value with Plaque-Psoriasis (10 patients with plaque psoriasis) is listed as 80%. Moreover, in the data set on Plaque-Psoriasis (of the responding patients), the “für drei Jahre symptomfrei” value is reported as 6 von 8. Moreover, in the data set on Bakterien, the Photomutagenität entry is on record as “nur eine geringe Photomutagenität”. For the same molecule, in the data set with Grünalgen, the Mutagenität result is reported as “keine signifikante Mutagenität”.
